Source: patent US10071967B2, “N-cycloalkyl-N-{[2-(1-substitutedcycloalkyl)phenyl]methylene}-(thio)carboxamide derivatives” (BAYER CROPSCIENCE AKTIENGESELLSCHAFT, priority 2013, dated 2018)

Assay: log P by HPLC on a reversed-phase column (C 18), EEC Directive 79/831 Annex V.A8
Type: physicochemical
Settings: HPLC reversed-phase C 18, 40° C., 0.1% aqueous formic acid and acetonitrile, gradient 10% to 90% acetonitrile
Method: In table 1, the log P values were determined in accordance with EEC Directive 79/831 Annex V.A8 by HPLC (High Performance Liquid Chromatography) on a reversed-phase column (C 18), using the method described below: Temperature: 40° C.; Mobile phases: 0.1% aqueous formic acid and acetonitrile; linear gradient from 10% acetonitrile to 90% acetonitrile. Calibration was carried out using unbranched alkan-2-ones (comprising 3 to 16 carbon atoms) with known log P values (determination of the log P values by the retention times using linear interpolation between two successive alkanones). lambda-max-values were determined using UV-spectra from 200 nm to 400 nm and the peak values of the chromatographic signals.

| SMILES | logP |
| --- | --- |
| Cn1cc(C(=S)N(Cc2cc(F)ccc2C2(C(F)(F)F)CC2)C2CC2)c(C(F)F)n1 [Example 1.152] | 3.94 |
| COCC1(c2ccc(C)cc2CN(C(=O)c2cc(C)oc2C)C2CC2)CC1 [Example 1.155] | 4.03 |
| COCC1(c2ccc(C)cc2CN(C(=O)c2cn(C)nc2C)C2CC2)CC1 [Example 1.157] | 2.61 |

Results, then the molecule that gave them:

| logP | SMILES |
| --- | --- |
| 4.44 | Cc1cc(C(=O)N(Cc2cc(F)ccc2C2(C(F)(F)F)CC2)C2CC2)c(C)o1 [Example 1.151] |
| 3.68 | Cn1cc(C(=O)N(Cc2cc(F)ccc2C2(C)CC2(Cl)Cl)C2CC2)c(C(F)F)n1 (stereo not drawn) [Example 1.153] |
| 3.13 | COCC1(c2ccc(C)cc2CN(C(=O)c2cn(C)nc2C(F)F)C2CC2)CC1 [Example 1.154] |
| 3.02 | COCC1(c2ccc(C)cc2CN(C(=O)c2c(C)nn(C)c2F)C2CC2)CC1 [Example 1.156] |

Same assay, conditions: HPLC, reversed-phase column (C 18), 40° C.; 0.1% aqueous formic acid and acetonitrile, linear gradient 10% to 90% acetonitrile

| SMILES | logP |
| --- | --- |
| CCC1(c2ccc(C(F)(F)F)cc2CN(C(=O)c2cn(C)nc2C(F)F)C2CC2)CC1 [Example 1.085] | 4.27 |
| CCC1(c2ccc(Cl)cc2CN(C(=O)c2c(C)nn(C)c2F)C2CC2)CC1 [Example 1.087] | 4.23 |
| CCC1(c2ccc(Cl)cc2CN(C(=O)c2cc(C)oc2C)C2CC2)CC1 [Example 1.088] | 5.31 |
| CCC1(c2ccc(Cl)cc2CN(C(=O)c2c(OC(F)F)nn(C)c2F)C2CC2)CC1 [Example 1.089] | 4.78 |
| CCC1(c2ccc(Cl)cc2CN(C(=O)c2c(OC(F)F)nn(C)c2Cl)C2CC2)CC1 [Example 1.090] | 5.03 |
| CCC1(c2ccc(Cl)cc2CN(C(=O)c2c(OC(F)F)nn(C)c2C(F)(F)F)C2CC2)CC1 [Example 1.091] | 5.36 |
| CCC1(c2ccc(C)cc2CN(C(=O)c2cn(C)nc2C(F)F)C2CC2)CC1 [Example 1.092] | 4.19 |
| CCC1(c2ccc(C)cc2CN(C(=O)c2c(C)nn(C)c2F)C2CC2)CC1 [Example 1.093] | 4.14 |
| CCC1(c2ccc(C)cc2CN(C(=O)c2nn(C)nc2C(F)F)C2CC2)CC1 [Example 1.094] | 4.77 |
| CCC1(c2ccc(C)cc2CN(C(=O)c2cc(C)oc2C(F)F)C2CC2)CC1 [Example 1.095] | 5.22 |
| CCC1(c2ccc(C)cc2CN(C(=O)c2c(C)nn(C)c2Cl)C2CC2)CC1 [Example 1.096] | 4.36 |
| CCC1(c2ccc(C)cc2CN(C(=O)c2cc(C)oc2C)C2CC2)CC1 [Example 1.097] | 5.14 |
| CCC1(c2ccc(C)cc2CN(C(=O)c2c(OC(F)F)nn(C)c2C(F)(F)F)C2CC2)CC1 [Example 1.100] | 5.35 |
| CCC1(c2ccc(C)cc2CN(C(=O)c2c(OC(F)F)nn(C)c2Cl)C2CC2)CC1 [Example 1.101] | 2.84 |
| CCC1(c2cccc(F)c2CN(C(=O)c2cn(C)nc2C(F)F)C2CC2)CC1 [Example 1.102] | 3.74 |
| Cc1ccc(C2(Cl)CC2)c(CN(C(=O)c2cn(C)nc2C(F)F)C2CC2)c1 [Example 1.105] | 3.51 |
| Cc1ccc(C2(Cl)CC2)c(CN(C(=O)c2c(C)nn(C)c2F)C2CC2)c1 [Example 1.106] | 3.42 |
| Cc1ccc(C2(C3CC3)CC2)c(CN(C(=O)c2cn(C)nc2C(F)F)C2CC2)c1 [Example 1.107] | 4.11 |
| Cc1ccc(C2(C3CC3)CC2)c(CN(C(=O)c2cc(C)oc2C)C2CC2)c1 [Example 1.109] | 5.05 |
| CCCC1(c2cc(Cl)ccc2CN(C(=O)c2nn(C)nc2C(F)F)C2CC2)CC1 [Example 1.112] | 5.31 |
| CCCC1(c2ccc(C)cc2CN(C(=O)c2cc(C)oc2C)C2CC2)CC1 [Example 1.115] | 5.62 |
| CCCC1(c2ccc(C)cc2CN(C(=S)c2cn(C)nc2C(F)F)C2CC2)CC1 [Example 1.116] | 5.08 |

| SMILES | logP |
| --- | --- |
| Cc1ccc(C2(C(C)C)CC2)c(CN(C(=O)c2nn(C)cc2C(F)F)C2CC2)c1 [Example 1.117] | 4.90 |
| Cc1ccc(C2(C(C)C)CC2)c(CN(C(=O)c2cc(C)oc2C)C2CC2)c1 [Example 1.118] | 5.65 |
| Cc1ccc(C2(C(C)C)CC2)c(CN(C(=O)c2nn(C)nc2C(F)F)C2CC2)c1 [Example 1.121] | 5.08 |
| Cc1ccc(C2(C(C)C)CC2)c(CN(C(=O)c2c(C)nn(C)c2F)C2CC2)c1 [Example 1.122] | 4.54 |
| Cc1ccc(C2(C(C)C)CC2)c(CN(C(=O)c2cn(C)nc2C(F)F)C2CC2)c1 [Example 1.123] | 4.49 |
| Cc1ccc(C2(C(C)C)CC2)c(CN(C(=S)c2cn(C)nc2C(F)F)C2CC2)c1 [Example 1.125] | 4.98 |
| CCOC1(c2ccc(C)cc2CN(C(=O)c2nn(C)nc2C(F)F)C2CC2)CC1 [Example 1.126] | 4.21 |
| CCOC1(c2ccc(C)cc2CN(C(=O)c2cn(C)nc2C)C2CC2)CC1 [Example 1.129] | 3.02 |
| CCOC1(c2ccc(C)cc2CN(C(=O)c2nn(C)cc2C(F)F)C2CC2)CC1 [Example 1.130] | 3.94 |
| CCOC1(c2ccc(C)cc2CN(C(=O)c2c(C)nn(C)c2Cl)C2CC2)CC1 [Example 1.131] | 3.71 |
| Cn1cc(C(=O)N(Cc2ccccc2C2(C(F)F)CC2)C2CC2)c(C(F)F)n1 [Example 1.132] | 3.00 |
| Cn1cc(C(=O)N(Cc2ccc(F)cc2C2(C(F)F)CC2)C2CC2)c(C(F)F)n1 [Example 1.133] | 3.09 |
| Cn1cc(C(=O)N(Cc2cc(Br)ccc2C2(C(F)F)CC2)C2CC2)c(C(F)F)n1 [Example 1.134] | 3.44 |
| Cc1ccc(C2(C(F)F)CC2)c(CN(C(=S)c2cn(C)nc2C(F)F)C2CC2)c1 [Example 1.140] | 3.76 |
| Cc1ccc(C2(C(F)F)CC2)c(CN(C(=S)c2c(C)nn(C)c2F)C2CC2)c1 [Example 1.141] | 3.81 |
| Cc1nn(C)c(F)c1C(=O)N(Cc1ccc(Cl)cc1C1(CC(C)C)CC1)C1CC1 [Example 1.143] | 5.08 |
| Cc1ccc(C2(CC(C)C)CC2)c(CN(C(=O)c2c(C)nn(C)c2F)C2CC2)c1 [Example 1.144] | 4.97 |
| Cn1cc(C(=O)N(Cc2ccccc2C2(C(F)(F)F)CC2)C2CC2)c(C(F)F)n1 [Example 1.145] | 3.41 |
| Cn1cc(C(=O)N(Cc2cc(Cl)ccc2C2(C(F)(F)F)CC2)C2CC2)c(C(F)F)n1 [Example 1.147] | 3.78 |
| Cc1cc(C(=O)N(Cc2cc(Cl)ccc2C2(C(F)(F)F)CC2)C2CC2)c(C)o1 [Example 1.148] | 4.82 |
| Cn1cc(C(=S)N(Cc2cc(Cl)ccc2C2(C(F)(F)F)CC2)C2CC2)c(C(F)F)n1 [Example 1.149] | 4.23 |
| Cn1cc(C(=O)N(Cc2cc(F)ccc2C2(C(F)(F)F)CC2)C2CC2)c(C(F)F)n1 [Example 1.150] | 3.48 |

Other lines, results leading:

| logP | SMILES |
| --- | --- |
| 4.24 | CCC1(c2cc(C)c(F)cc2CN(C(=O)c2cn(C)nc2C(F)F)C2CC2)CC1 [Example 1.081] |
| 4.26 | CCC1(c2cc(C)c(F)cc2CN(C(=O)c2c(C)nn(C)c2F)C2CC2)CC1 [Example 1.082] |
| 5.34 | CCC1(c2cc(C)c(F)cc2CN(C(=O)c2cc(C)oc2C)C2CC2)CC1 [Example 1.083] |
| 4.34 | CCC1(c2ccc(C(F)(F)F)cc2CN(C(=O)c2c(C)nn(C)c2F)C2CC2)CC1 [Example 1.084] |
| 4.18 | CCC1(c2ccc(Cl)cc2CN(C(=O)c2cn(C)nc2C(F)F)C2CC2)CC1 [Example 1.086] |
| 4.72 | CCC1(c2ccc(C)cc2CN(C(=O)c2c(OC(F)F)nn(C)c2F)C2CC2)CC1 [Example 1.098] |
| 4.69 | CCC1(c2ccc(C)cc2CN(C(=S)c2cn(C)nc2C(F)F)C2CC2)CC1 [Example 1.099] |
| 3.63 | CCC1(c2cccc(F)c2CN(C(=O)c2c(C)nn(C)c2F)C2CC2)CC1 [Example 1.103] |
| 2.88 | COC1(c2ccccc2CN(C(=O)c2cn(C)nc2C(F)F)C2CC2)CC1 [Example 1.104] |
| 4.11 | Cc1ccc(C2(C3CC3)CC2)c(CN(C(=O)c2c(C)nn(C)c2F)C2CC2)c1 [Example 1.108] |
| 5.78 | CCCC1(c2cc(Cl)ccc2CN(C(=O)c2cc(C)oc2C(F)F)C2CC2)CC1 [Example 1.111] |
| 4.59 | CCCC1(c2ccc(C)cc2CN(C(=O)c2cn(C)nc2C(F)F)C2CC2)CC1 [Example 1.114] |
| 4.80 | Cc1ccc(C2(C(C)C)CC2)c(CN(C(=O)c2c(C)nn(C)c2Cl)C2CC2)c1 [Example 1.119] |
| 5.54 | Cc1ccc(C2(C(C)C)CC2)c(CN(C(=O)c2cc(C)oc2C(F)F)C2CC2)c1 [Example 1.120] |
| 3.96 | Cc1ccc(C2(C(C)C)CC2)c(CN(C(=O)c2cn(C)nc2C)C2CC2)c1 [Example 1.124] |
| 3.53 | CCOC1(c2ccc(C)cc2CN(C(=O)c2c(C)nn(C)c2F)C2CC2)CC1 [Example 1.127] |
| 3.60 | CCOC1(c2ccc(C)cc2CN(C(=O)c2cn(C)nc2C(F)F)C2CC2)CC1 [Example 1.128] |
| 3.37 | Cn1cc(C(=O)N(Cc2cc(Cl)ccc2C2(C(F)F)CC2)C2CC2)c(C(F)F)n1 [Example 1.135] |
| 3.33 | Cc1nn(C)c(F)c1C(=O)N(Cc1cc(Cl)ccc1C1(C(F)F)CC1)C1CC1 [Example 1.136] |
| 3.09 | Cn1cc(C(=O)N(Cc2cc(F)ccc2C2(C(F)F)CC2)C2CC2)c(C(F)F)n1 [Example 1.137] |
| 3.29 | Cc1ccc(C2(C(F)F)CC2)c(CN(C(=O)c2cn(C)nc2C(F)F)C2CC2)c1 [Example 1.138] |
| 3.21 | Cc1ccc(C2(C(F)F)CC2)c(CN(C(=O)c2c(C)nn(C)c2F)C2CC2)c1 [Example 1.139] |
| 3.39 | Cn1cc(C(=O)N(Cc2c(Br)cccc2C2(C(F)F)CC2)C2CC2)c(C(F)F)n1 [Example 1.142] |
| 4.31 | Cc1cc(C(=O)N(Cc2ccccc2C2(C(F)(F)F)CC2)C2CC2)c(C)o1 [Example 1.146] |
